pIC50: −log10 of the molar value. “Also recorded” adds a separate entry of the source.
Legend:
LoVo cells = assay: Growth inhibition of LoVo colon cancer cells; assay type: cell-based; settings: Homo sapiens, Table IV, read-out: IC50 for inhibition of human colon cancer cell proliferation
Method: (§1) For dose response studies a sensitive dye binding assay was adapted which allows simultaneous assay of multiple agents and doses in 96-well plates. Cells were plated and allowed to adhere for 24 hours prior to addition of the study drug. Cell densities were then determined 4 days later by fixation of the wells and staining with Sulforhodamine B dye.

HRT-18 cells = assay: Growth inhibition of HRT-18 colon cancer cells; assay type: cell-based; settings: Homo sapiens; HRT-18, Table IV; read-out: IC50 for inhibition of human colon cancer cell proliferation
Method: as §1

[1] = test system: aberrant crypt foci induced by azoxymethane (AOM); assay: Inhibition of aberrant crypt progression / multiplicity, treatment started 24 hours after second AOM injection; assay type: in vivo, rat
Excerpt: Inhibition of Aberrant Crypt Progression. The data shown in FIG. 4 were collected from the distal 7-8 cm of colonic tissue. At these early time points, this area contained over 80% of the total aberrant crypt foci. An additional study was therefore designed to examine a longer time point, assess the distribution throughout the entire 25 cm of colon and determine if the drug treatment could be initiated after the second AOM injection.
In the second study, groups of 8 animals received two injections of azoxymethane one week apart. Balsalazide treatment was then initiated with one group 24 hours following the second injection. Six weeks later the animals were processed for aberrant crypt analysis. Crypts were stained in situ by rectal instillation of a 0.2% solution of methylene blue for 15 min under anesthesia. Animals were then exsanguinated, colonic tissue from the anus to the caecum was excised, cleaned and fixed for 2 hours in 2% paraformaldehyde. Crypts were counted by viewing at a magnification of 40×. In addition to collecting data on the number of foci, data was also collected on the multiplicity of aberrant crypts per foci.
Previous studies by Pretlow et al (Pretlow et al. (1992) Carcinogenesis 13:1509-1512) have reported on the relationship between aberrant crypt multiplicity and ultimate tumor development using the same carcinogenesis model. […] The data from the above experiment was analyzed to determine the effect of balsalazide on the aberrant crypt multiplicity. […] For foci with 1-3 crypts the mean inhibition ranged from 57-61% (p<0.003, Fischer exact test) while the number of foci with 4 or more crypts was reduced by a mean of 72-76% (p<0.001). When the results on the number of foci containing 4 or more crypts are compared with those containing 3 or less the difference remains statistically significant at the p<0.022 level using the Fischer exact test.

LS174T cells = assay: Proliferation of LS174T colon cancer cells, Coulter Counter cell count; assay type: cell-based, human
Method: (§2) Cells were grown in Dulbeccos Modified Eagle medium supplemented with 10% calf serum in an atmosphere of 5% CO2 at 37° C. For growth experiments, cells were seeded into 24-well tissue culture dishes (2 cm^2 /well) at a density of 20,000 cells/well and allowed to attach for 12 hours. The growth medium was then changed and replaced with fresh media containing the test drugs.
(§3) The test drugs were dissolved in tissue culture media at the desired concentration and added to individual wells. To determine the number of cells per well, media was removed and the cells washed with phosphate buffered saline solution. The cells were then incubated 15 minutes with trypsin-EDTA solution until detached. The detached cells were then removed from the wells and counted using a Coulter Counter (Model ZBI).
(§4) The cell numbers shown in Table I are the average of triplicate culture wells.

[2] = rat; cited from earlier work
human colon cancer cells = assay: Colon cancer cell proliferation in vitro, comparative statements; assay type: cell-based
Method: as §2, §3, §4
as §1, with “dye. Optical density of the stained cultures was then determined using a 96-well plate reader at 495 nm (Skehan et al. (1990) J. Natl. Cancer Inst. 82:1107-1112).” for “dye.”
Two such oxidation products, gentisic acid (Dull et al. (1987) Biochem. Pharmacol. 36:2467-2472) and 5-nitro-salicylate (Laffafian et al. (1991) Biochem. Pharmacol. 42:1869-1874) have been elucidated.

[3] = cited from earlier work
[4] = 6 weeks after second AOM injection, 8 animals

In the case of `O=C(O)CCNC(=O)c1ccc(/N=N/c2ccc(O)c(C(=O)O)c2)cc1` [Balsalazide], the pIC50 (LoVo cells) was 2.30, the pIC50 (HRT-18 cells) was 2.41 and the “mean number of foci, Total” value [1, 4] was 63.75. The “mean number of foci, multiplicity 1” value [1, 4] was 10.3, the “mean number of foci, multiplicity 2” value [1, 4] was 19.1 and the “mean number of foci, multiplicity 3” value [1, 4] was 15.3. For the same compound, the “mean number of foci, multiplicity 4” value [1, 4] was 8.5, the “mean number of foci, multiplicity 5 to 8” value [1, 4] was 9.6 and the “inhibition of aberrant crypt foci overall” value ([1]; given beginning 24 hours following second AOM injection, 6 weeks) was “approximately 60%”. The “mean reduction of number of foci with 4 or more crypts” value ([1]; p<0.001) was 72-76%, the “mean inhibition of foci with 1-3 crypts” value ([1]; p<0.003, Fischer exact test) was 57-61% and the “reduction of foci with the greatest number of aberrant crypts relative to foci containing 2-3” value ([1]; rat, in vivo) was “almost twice”. The “Cell No. on Day 10” value (LS174T cells; 10 mM, average of triplicate wells) was 24925, the activity at 10000 µM (LS174T cells; Homo sapiens, 240 h, read-out: % of Control Cells) was 3.51% and the maximum tolerated dose [2] was > 12,000 mg/kg/day. For the same compound, the “inhibition of colon cancer cell growth (in words)” value (human colon cancer cells) was “potently inhibitory; also recorded: greater inhibitory response at lower concentrations than did 5-ASA”, the “relative sensitivity of LS174T and HT-29 cells” value (human colon cancer cells; LS174T vs HT-29) was “identical between both cell types” and the “gastric or duodenal ulceration” value ([3]; human, in vivo) was “no evidence of gastric or duodenal ulceration”. For the same compound, the gastrointestinal tolerance ([3]; human, in vivo) was “excellent gastrointestinal tolerance” and the nephrotoxicity ([3]; over 500 patients, some for as long as three years) was “no evidence of nephrotoxicity”.

From US5905073A, “Use of 2-hydroxy-5-phenylazobenzoic acid derivatives as colon cancer chemopreventative and chemotherapeutic agents” (priority 1996, dated 1999)
